Reference: patent US20140163095A1, “USE OF ERIBULIN IN THE TREATMENT OF BREAST CANCER” (priority 2012, published 2014)
Marks after values point to notes of the source that are not given here.

Columns and labels:
[1] = test system: locally recurrent or metastatic HER2 negative breast cancer; assay: Phase II clinical trial of eribulin mesylate as first-line treatment (Part 2, additional data); assay type: in vivo, human
From the text: This example provides additional data obtained from the study described above in Example 2. The baseline demographics and characteristics of patients in the study are as set forth below in Table 6.

[2] = test system: locally advanced or metastatic breast cancer; assay: Phase III clinical trial comparing eribulin mesylate and capecitabine; details: for overall survival as compared to capecitabine: FIG. 6
Protocol: A global, randomized, open-label, two-parallel-arm, phase III clinical trial of eribulin (eribulin mesylate) and capecitabine was performed.
This study randomized 1102 patients who had up to three prior chemotherapy regimens, and no more than two prior regimens for advanced and/or metastatic disease. The prior regimens must have included an anthracycline and a taxane, either in the (neo) adjuvant setting or for locally advanced or metastatic disease. Patients must have had documented evidence of progression during or after their most recent anti-cancer therapy. […] Patients were randomized to receive either eribulin mesylate as an intravenous (IV) infusion of 1.4 mg/m^2 over 2-5 minutes on days 1 and 8 every 21 days or capecitabine as an oral administration of 2.5 g/m^2/day administered twice daily in two equal doses on days 1 to 14 every 21 days.
This study was designed to have co-primary endpoints, overall survival (OS) and progression free survival (PFS), with alpha spending 0.04 and 0.01, respectively.
Progression events (disease progression determined by Response Evaluation Criteria in Solid Tumors [RECIST, version 1.0]) were categorized as: (i) emergence of a new lesion/metastasis, defined here as a lesion identified at progression that had not been previously reported, (ii) increase in size of an existing (previously reported) lesion (target or non-target), and (iii) other PFS event, e.g., death, clinical progression, or censoring. Investigator review of disease progression was used as the primary analysis for these investigations. Where progression was determined by investigator review, no further scans were performed, leading to informative censoring of independent review data (approximately 20%). The number of new metastases observed by independent review was considered an under-estimate due to this considerable informative censoring. OS and PFS were compared between treatment arms using two-sided, stratified (geographic region and HER2 status) log-rank tests. The correlation between progression events and OS was investigated by Cox regression, incorporating the event as a time-dependent covariate. New metastasis-free survival, defined as time from randomization to death or progression due to appearance of a new metastasis (whichever occurs earlier), was also analyzed.

[3] = test system: locally recurrent or metastatic HER2 negative breast cancer; assay: Phase II clinical trial of eribulin mesylate as first-line treatment (Part 1); assay type: in vivo, human; details: for DOR (duration of response), Median months (95% CI) / TTR (time to first response), Median months (95% CI): 13 responders
Protocol: A multi-center, single-arm, phase II clinical trial of eribulin mesylate was performed to evaluate the objective response rate (ORR) (according to RECIST v1.1) to first-line treatment with single-agent eribulin mesylate in subjects with locally recurrent or metastatic HER2 negative breast cancer. Secondary objectives included the safety and tolerability of eribulin mesylate, time to first response, duration of response (DOR), and progression free survival (PFS).
Patients were excluded from the study if they had inflammatory breast cancer or had received prior chemotherapy, biologic therapy, or investigational therapy for locally recurrent or metastatic breast cancer (patients who received prior endocrine therapy were permitted).
HER2 status was determined by either fluorescence in situ hybridization (FISH) or 0 or 1+ by immunohistochemical (IHC) staining. Subjects with an HER2:FISH ratio of 1.8:2.2 were eligible, consistent with ASCO/CAP guidelines (Wolff et al., J. Clin. Oncol. 25:118-145, 2007).

[4] = ER−/PR−/HER2−, n 2, CI not available
[5] = of patients with any new metastasis
[6] = All Subjects, listed as eribulin

SMILES: C=C1C[C@@H]2CC[C@@]34C[C@H]5O[C@H]6[C@@H](O3)[C@H]3O[C@H](CC[C@@H]3O[C@H]6[C@H]5O4)CC(=O)C[C@@H]3[C@@H](OC)[C@@H](C[C@H](O)CN)O[C@H]3C[C@H]3O[C@@H](CC[C@@H]1O2)C[C@@H](C)C3=C.CS(=O)(=O)O [Eribulin, 11,15:18,21:24,28-Triepoxy-7,9-ethano-12,15-methano-9H,15H-furo[3,2-i]furo[2′,3′:5,6]pyrano[4,3-b][1,4]dioxacyclopentacosin-5(4H)-one, 2-[(2S)-3-amino-2-hydroxypropyl]hexacosahydro-3-methoxy-26-methyl-20,27-bis(methylene)-, (2R,3R,3aS,7R,8aS,9S,10aR,11S,12R,13aR,13bS,15S,18S,21S,24S,26R,28R,29aS)-methanesulfonate (salt)]
- DOR (duration of response), Median months (95% CI) ([1]; ALL, 16 responders): 5.8 (4.7-10.6) months
- TTR (time to first response), Median months (95% CI) ([1]; ALL, 16 responders): 1.4 (1.2-2.7) months
- TTR (time to first response), Median months (95% CI) ([1]; ALL, 16 responders, listed as eribulin): 1.4 months
- PFS, Median months (95% CI) ([1]; ALL, N 56): 6.8 (4.4-7.6) months
- PFS, Median months (95% CI) ([1]; ALL, N 56, listed as eribulin): 6.8 months
- Clinical benefit rate (CR + PR + ≧6 months SD) ([1]; ALL, N = 56): 29 (51.8) n (%)
- Complete response (CR) ([1]; ALL, N = 56): 0 n (%)
- Disease control rate (CR + PR + SD) ([1]; ALL, N = 56): 42 (75.0) n (%)
- Not evaluable/unknown (response category) ([1]; ALL, N = 56): 3 (5.4) n (%)
- Objective response rate (ORR) ([1]; ALL, N = 56): 16 (28.6) n (%)
- Partial response (PR) ([1]; ALL, N = 56): 16 (28.6) n (%)
- Progressive disease (PD) ([1]; ALL, N = 56): 11 (19.6) n (%)
- ORR ([1]; ER+ subgroup): 34.1%
- disease control rate ([1]; ER+ subgroup): 85.4%
- DOR, Median months (95% CI) ([1]; ER+, n 14): 7.4 (4.6-27.5) months
- TTR, Median months (95% CI) ([1]; ER+, n 14): 2.0 (1.3-2.7) months
- PFS, Median months (95% CI) ([1]; ER+, n 41): 7.4 (6.1-11.9) months
- PFS, Median months (95% CI) ([1]; ER+, n 41, listed as eribulin): 7.4 months
- Clinical benefit rate (CR + PR + ≧6 months SD) ([1]; ER+, n = 41): 26 (63.4) n (%)
- Complete response (CR) ([1]; ER+, n = 41): 0 n (%)
- Disease control rate (CR + PR + SD) ([1]; ER+, n = 41): 35 (85.4) n (%)
- Not evaluable/unknown (response category) ([1]; ER+, n = 41): 1 (2.4) n (%)
- Objective response rate (ORR) ([1]; ER+, n = 41): 14 (34.1) n (%)
- Partial response (PR) ([1]; ER+, n = 41): 14 (34.1) n (%)
- Progressive disease (PD) ([1]; ER+, n = 41): 5 (12.2) n (%)
- DOR, Median months [1, 4]: 5.2* months
- TTR, Median months [1, 4]: 1.1* months
- PFS, Median months (95% CI) ([1]; ER−/PR−/HER2−, n 12): 3.4 (1.2-6.8) months
- sum of target lesion diameters from baseline to postbaseline nadir ([1]; FIG. 12, in words): majority of patients experienced a decrease
- Objective response rate (ORR) ([1]; Triple negative (ER−/PR−/HER2−), n = 12): 2 (16.1) n (%)
- Clinical benefit rate (CR + PR + ≧6 months SD) ([1]; Triple negative, n = 12): 3 (25.0) n (%)
- Complete response (CR) ([1]; Triple negative, n = 12): 0 n (%)
- Disease control rate (CR + PR + SD) ([1]; Triple negative, n = 12): 6 (50.0) n (%)
- Not evaluable/unknown (response category) ([1]; Triple negative, n = 12): 1 (8.3) n (%)
- Partial response (PR) ([1]; Triple negative, n = 12): 2 (16.7) n (%)
- Progressive disease (PD) ([1]; Triple negative, n = 12): 5 (41.7) n (%)
- ORR ([1]; all patients (16/56)): 28.6%
- median PFS ([1]; patients who did not receive prior A/T): 5.7 months
- median PFS ([1]; patients who had received prior A/T): 5.9 months
- clinical benefit rate (CBR) ([1]; patients with prior A/T (15/33)): 45.5%
- ORR ([1]; patients with prior neo/adjuvant anthracyclines and/or taxanes (A/T) (9/33)): 27.3%
- time to a new metastasis observed in the CNS, lungs, or liver ([2]; FIG. 5, in words): trend favouring eribulin over capecitabine
- overall survival as compared to capecitabine ([2]; HER2 negative patients, in words): increased overall survival
- median overall survival (OS) ([2]; all randomized patients): 15.9 months
- median progression-free survival (PFS) ([2]; all randomized patients): 4.1 months
- median survival as compared to capecitabine ([2]; breast cancers not characterized as triple negative, FIG. 7B, in words): similar
- New metastasis site: Bone, patients ([2]; count): 60
- New metastasis site: Breast, patients ([2]; count): 12
- New metastasis site: CNS (brain/spine), patients ([2]; count): 13
- New metastasis site: Chest wall, patients ([2]; count): 15
- New metastasis site: Liver, patients ([2]; count): 71
- New metastasis site: Lung, patients ([2]; count): 59
- New metastasis site: Lymph nodes, patients ([2]; count): 64
- New metastasis site: Other, patients ([2]; count): 30
- New metastasis site: Skin, patients ([2]; count): 23
- Number of patients with any new metastasis observed ([2]; count, investigator review, intent-to-treat): 291
- hazard ratio, overall survival ([2]; eribulin versus capecitabine, 95% CI 0.77, 1.00): 0.88
- hazard ratio, progression-free survival ([2]; eribulin versus capecitabine, 95% CI 0.93, 1.25): 1.08
- 1-year OS relative to capecitabine ([2]; in words): statistically significant improvement
- new metastasis-free survival, median difference in favour of eribulin ([2]; independent review): 0.3 months
- new metastasis-free survival, median difference in favour of eribulin ([2]; investigator review): 0.6 months
- patients with progression due to a new metastasis ([2]; investigator review): 48.9%
- patients with progression due to increase in the size of a pre-existing lesion ([2]; investigator review): 26.5%
- patients with progression due to other reasons such as death and clinical progression ([2]; investigator review): 24.5%
- patients with any new metastasis observed, percentage ([2]; investigator review, intent-to-treat): (52.5) %
- HR, new metastasis-free survival ([2]; investigator review, eribulin versus capecitabine): 0.90
- New metastasis site: Bone, percentage [2, 5]: (20.6) %
- New metastasis site: Breast, percentage [2, 5]: (4.1) %
- New metastasis site: CNS (brain/spine), percentage [2, 5]: (4.5) %
- New metastasis site: Chest wall, percentage [2, 5]: (5.2) %
- New metastasis site: Liver, percentage [2, 5]: (24.4) %
- New metastasis site: Lung, percentage [2, 5]: (20.3) %
- New metastasis site: Lymph nodes, percentage [2, 5]: (22.0) %
- New metastasis site: Other, percentage [2, 5]: (10.3) %
- New metastasis site: Skin, percentage [2, 5]: (7.9) %
- median OS longer with eribulin compared with capecitabine ([2]; patients whose disease progressed due to a new metastasis): 2.6 months
- Median OS ([2]; patients whose disease progressed due to other events): 16.7 months
- Median OS ([2]; patients with progression due to new metastasis): 15.5 months
- Median OS ([2]; patients with progression due to pre-existing lesion): 17.4 months
- HR, overall survival ([2]; progression due to new metastasis, eribulin versus capecitabine): 0.81
- HR, overall survival ([2]; progression due to other events, eribulin versus capecitabine): 0.78
- HR, overall survival ([2]; progression due to pre-existing lesion, eribulin versus capecitabine): 1.13
- median survival as compared to capecitabine ([2]; triple negative breast cancers, FIG. 7A, in words): statistically significant increase
- overall survival as compared to capecitabine ([2]; triple negative patients, in words): most significant improvement
- DOR (duration of response), Median months (95% CI) ([3]; All Subjects): 7.4 (3.29, NE) months
- TTR (time to first response), Median months (95% CI) ([3]; All Subjects): 1.4 (1.31, 2.69) months
- DOR (duration of response), Median months (95% CI) [3, 6]: 7.4 months
- TTR (time to first response), Median months (95% CI) [3, 6]: 1.4 months
- PFS, Median months (95% CI) ([3]; All Subjects, N 48): 5.9 (3.48, 7.39) months
- PFS, Median months (95% CI) ([3]; All Subjects, N 48, listed as eribulin): 5.9 months
- Clinical benefit rate (CR + PR + durable SD) ([3]; All, N = 48): 22 (45.8) n (%)
- Complete response (CR) ([3]; All, N = 48): 0 n (%)
- Disease control rate (CR + PR + SD) ([3]; All, N = 48): 36 (75.0) n (%)
- Not evaluable/unknown (response category) ([3]; All, N = 48): 1 (2.1) n (%)
- Objective response rate (ORR) ([3]; All, N = 48): 13 (27.1) n (%)
- Partial response (PR) ([3]; All, N = 48): 13 (27.1) n (%)
- Progressive disease (PD) ([3]; All, N = 48): 11 (22.9) n (%)
- DOR, Median months (95% CI) ([3]; ER+ Subjects, N 10): 7.4 (3.29, NE) months
- TTR, Median months (95% CI) ([3]; ER+ Subjects, N 10): 1.4 (1.22, 2.66) months
- PFS, Median months (95% CI) ([3]; ER+ Subjects, N 35): 6.7 (4.14, 8.54) months
- Clinical benefit rate (CR + PR + durable SD) ([3]; ER+, N = 35): 19 (54.3) n (%)
- Complete response (CR) ([3]; ER+, N = 35): 0 n (%)
- Disease control rate (CR + PR + SD) ([3]; ER+, N = 35): 29 (82.9) n (%)
- Not evaluable/unknown (response category) ([3]; ER+, N = 35): 0 n (%)
- Objective response rate (ORR) ([3]; ER+, N = 35): 10 (28.6) n (%)
- Partial response (PR) ([3]; ER+, N = 35): 10 (28.6) n (%)
- Progressive disease (PD) ([3]; ER+, N = 35): 6 (17.1) n (%)
- sum of target lesion diameters from baseline to post-baseline nadir ([3]; FIG. 10, in words): majority of patients experienced a decrease
- Objective response rate (ORR) ([3]; Triple Negative (ER−/PR−/HER2−), N = 10): 3 (30.0) n (%)
- TTR, Median months (95% CI) ([3]; Triple Negative Subjects, N 3): 2.9 (1.15, 5.59) months
- PFS, Median months (95% CI) ([3]; Triple Negative Subjects, N 10): 4.7 (1.05, NE) months
- Clinical benefit rate (CR + PR + durable SD) ([3]; Triple Negative, N = 10): 3 (30.0) n (%)
- Complete response (CR) ([3]; Triple Negative, N = 10): 0 n (%)
- Disease control rate (CR + PR + SD) ([3]; Triple Negative, N = 10): 6 (60.0) n (%)
- Not evaluable/unknown (response category) ([3]; Triple Negative, N = 10): 1 (10.0) n (%)
- Partial response (PR) ([3]; Triple Negative, N = 10): 3 (30.0) n (%)
- Progressive disease (PD) ([3]; Triple Negative, N = 10): 3 (30.0) n (%)
- Objective response rate (ORR) ([3]; all patients (13/48)): 27.1%
